Laboratory results as given in patent publication US9957214B2, “Multifunctional radical quenchers” (ARIZONA BOARD OF REGENTS ON BEHALF OF ARIZONA STATE …, priority 2012, dated 2018).
Where two headings read alike, the source gives them in different places.

Tests used:
[1] = system: NADH oxidase (complexes I, III and IV); assay: NADH oxidase activity (complexes I, III and IV) in submitochondrial particles; assay type: biochemical, bovine
[2] = system: Friedreich's ataxia lymphoblast cell line GM15850; assay: Cytoprotection (trypan blue exclusion assay) of DEM-treated FRDA lymphocytes; assay type: cell-based; conditions: DEM alone 18 ± 10% viability; for viability at 5 µM / viability at 0.1 µM / viability at 0.5 µM / viability at 2.5 µM: Homo sapiens, GM15850, read-out: Cytoprotection (cell viability, % of untreated control)
Experimental: Cell viability was determined by trypan blue exclusion assay in Friedreich's ataxia lymphoblast cell line GM15850 (Coriell Institute, New Jersey). This technique was used to assess the cytoprotective effects of the tested compounds in cultured cells treated with DEM to induce cell death by GSH depletion. The viability of DEM-treated FRDA cells was determined by their ability to exclude the dye trypan blue. Viable cells exclude trypan blue, whereas non-viable cells take up the dye and stain blue. Briefly, FRDA lymphocytes were grown in RPMI 1640 medium (Gibco) supplemented with 15% fetal calf serum, 2 mM glutamine (HyClone) and 1% penicillin-streptomycin mix (Cellgro). Cells were seeded at a density of 5×10^5 cells/mL and treated with different concentrations of the indicated compounds. Cells were incubated at 37° C. in a humidified atmosphere of 5% CO2 in air for 17 h. After pre-incubation, the cells were treated with 5 mM DEM. Cell viability was determined by staining cells with 0.4% trypan blue using a hemacytometer. At least 500 cells were counted in each experimental group. At the time of assay, <20% of DEM treated cells were viable (trypan blue negative), whereas in non DEM-treated control, >90% cells were viable. Cell viability was expressed as the percentage of control. Data are expressed as means±S.E.M. (n=3).
Cell viability was determined by trypan blue exclusion assay in Friedreich's ataxia lymphoblast cell line GM15850 (Coriell Institute). This technique was used to assess the cytoprotective effects of the compounds in cultured cells treated with diethyl maleate (DEM) to induce cell death by glutathione (GSH) depletion. The viability of DEM-treated FRDA cells was determined by their ability to exclude the dye trypan blue. Viable cells exclude trypan blue, whereas non-viable cells take up the dye and stain blue. […] Benzoquinone analogue 9 afforded greater cyoprotection to FRDA lymphocytes at 5 μM concentration than did the tert-butyl ester 6 (74 vs 50%).

FRDA lymphocytes = assay: Suppression of lipid peroxidation (C11-BODIPY581/591, FACS) in FRDA lymphocytes treated with diethyl maleate; assay type: cell-based; conditions: DEM; for inhibition at 5 µM / inhibition at 10 µM / inhibition at 1 µM: Lymphocyte, read-out: Scavenging activity (%), suppression of lipid peroxidation
Text: Several methods for assaying lipid peroxidation in vitro have been developed (Kuypers et al. (1987) Biochim Biophys Acta. 25, 266-274; Pap et al. (1999) FEBS Lett. 453, 278-282; Drummen et al. (2002) Free RadicBiol Med. 33, 473-490). Almost all of these methods are based on inhibition of free radical-induced oxidation reactions. A widely used fluorescence assay for lipid peroxidation uses lipid soluble cis-parinaric acid as a probe. cis-parinaric acid loses its fluorescence (λexc/em: 320/432 nm) upon interaction with peroxyl radicals and retains its fluorescence in the presence of radical quenchers. cis-parinaric acid is, however, air sensitive, photolabile and absorbs light in the UV region of the spectrum (at ˜320 nm). […] In practical terms, the results obtained using cis-parinaric as a probe for lipid peroxidation are confounded due to the overlapping of the compounds emission spectra with the cis-parinaric emission spectrum. C11-BODIPY^581/591 Oxidation to Measure Lipid Peroxidation To overcome the problem of spectral overlap using cis-parinaric acid, a fluorescence assay for lipid peroxidation using a lipophilic probe belonging to the BODIPY class of fluorescent dyes was used C11-BODIPY^581/591 (4,4-difluoro-5(4-phenyl-1,3-butadienyl)-4-bora-3a, 4a-diaza-s-indacene-3-propionic acid) fluorescent shifts from red to green upon oxidation. C11-BODIPY^581/591 (Molecular Probes, Eugene, Oreg., USA) stock solution concentrations were determined by measuring the absorption of C11-BODIPY^581/591 at 582 nm using a molar extinction coefficient of 140,000 mol^−1 cm^−1 (R. P. Haugland, (1999) Handbook of Fluorescent Probes and Research Chemicals, Molecular Probes, Inc., Eugene, Oreg.). The lipid peroxidation inducer 2,2′-Azobis (2-amidino-propane dihydrochloride) (AAPH) and the antioxidant compound α-tocopherol (α-TOH) were obtained from Sigma (St. Louis, Mo., USA). Phospholipid bilayers were prepared from 1-stearoyl-2-oleoyl-phosphatidylcholine (SOPC) and 1,2-dilinoleoyl-phosphatidylcholine (DLPC) and were purchased from Avanti® polar lipids, Inc., (Alabaster, Ala., USA). Preparation of Liposomes Phosphotidylcholine (PC) liposomes were prepared as described before (Guey-Shuang et al. (1982) Lipids. 17, 403-413). Briefly, DLPC (25 mg) were dissolved in chloroform and the solvent was removed by nitrogen evaporation (˜2 hours) to give a thin film of PC in a round bottom flask. The lipid film was hydrated with 50 mL of 10 mM Tris-HCl (pH 7.4), 100 mM KCl, shaken and sonicated for 15 seconds. The liposomes obtained were filtered several times through […] membrane filter. Measurement of C11-BODIPY^581/591 Oxidation C11-BODIPY^581/591 was incorporated into liposomes and oxidized by peroxyl radicals derived from the decomposition of AAPH in the presence and absence of compounds. Liposomes (1 mg/mL), suspended in 10 mM Tris-HCl (pH 7.4), 100 mM KCl, were transferred to a quartz 1 mL cuvette and placed in a Varian Cary Eclipse fluorometer (Varian, Cary, N.C.) equipped with a thermostatted cuvette holder at 40° C. Liposomes were pre-incubated for 10 min with 200 nM C11-BODIPY^581/591 to allow their incorporation into the lipid phase of the liposomes. After the addition of AAPH (10 mM) the decay of the red fluorescence was followed at λ exc=570 nm, λ em=600 nm. Relative fluorescence units were normalized to 100% intensity. Results obtained were verified by repeating experiments N=3 independent experiments. Measurement of C11-BODIPY^581/591 Oxidation in Cell Culture A quantitative FACS analysis of lipid peroxidation of FRDA lymphocytes, which had been treated with diethyl maleate following incubation in the presence and absence of the test compounds, was measured as described (Khdour et al. (2011) Pharmaceut. Res. 28, 2896-2909). Briefly, FRDA lymphocytes (5×10^5 cell/mL) were treated with the test compounds at final concentrations of 5 and 10 μM and incubated at 37° C. for 16 h in a humidified atmosphere containing 5% CO2 in air. […]

CEM leukemia cells = assay: Suppression of ROS production (DCFH-DA flow cytometry) in DEM-treated CEM leukemia cells; assay type: cell-based; conditions: 5 μM; CEM leukemia cells pretreated with DEM
Experimental: FIG. 1. Flow cytometric analysis of CEM leukemia lymphocytes (gray bars) and FRDA lymphocytes (black bars) stained with dichlorodihydrofluorescein diacetate (DCFH-DA) for 20 min, following pretreatment with the test compounds at 5 μM concentration for 16 h, and subsequent treatment with diethyl maleate (DEM) for 60 or 80 min to induce the production of ROS in CEM and FRDA lymphocytes, respectively. Data shown represent the mean±SEM of two different experiments run as duplicates.
Intracellular ROS production was measured in FRDA lymphocyte cells (GM15850, Coriell Cell Repositories, Camden, N.J.) using the oxidant sensitive fluorescent probe 2,7-dichlorodihydrofluorescein diacetate (DCFH-DA) (Molecular Probes) as described previously (Khdour et al. (2011) Pharm. Res. 28, 2896-2909). One mL of FRDA lymphocyte cells or leukemic CEM cells (5×10^5 cells) were plated in a 24-well plate, treated with the test compounds and incubated at 37° C. for 16 h in a humidified atmosphere containing 5% CO2 in air. Cells were treated with 5 mM diethyl maleate (DEM) for 80 min or 60 min respectively, collected by centrifugation at 300×g for 3 min and then washed with phosphate buffered saline (PBS) (Life Technologies). Cells were resuspended in PBS containing 20 mM glucose and incubated at 37° C. in the dark for […] with 10 μM DCFH-DA. Cells were collected by centrifugation at 300×g for 3 min and then washed with PBS. The samples were analyzed immediately by flow cytometry (C6 Accuri, BD Biosciences, San Jose, Calif.), using a 488 nm excitation laser and the FL1-H channel 530±15 nm emission filter. The generation of ROS, mainly peroxides, was detected as a result of the oxidation of DCFH. In each analysis, 10,000 events were recorded after cell debris was electronically gated out. Results obtained were verified by running duplicates and repeating experiments in three independent runs. Results were expressed as percentage of ROS scavenging activity.
The ability of the synthesized analogues to quench ROS and lipid peroxidation was evaluated in FRDA lymphocytes or leukemic CEM cells. These cells were placed under oxidative stress by depleting them of glutathione (GSH) using diethyl maleate (DEM). Depletion of glutathione by treatment FRDA lymphocytes or leukemic CEM cells with DEM has been used to induce oxidative stress in cellular systems by generation of ROS. Intracellular ROS production was measured using the oxidant sensitive fluorescent probe 2,7-dichlorodihydrofluorescein diacetate (DCFH-DA) (Molecular Probes).

[3] = target: bovine heart mitochondrial complex I (Bos taurus, UniProt P03887+P17694+P42026); assay: Complex I (NADH-Q1 oxidoreductase) inhibition in submitochondrial particles; assay type: biochemical
[4] = submitochondrial particles, 30° C.; read-out: Complex I inhibition IC50
[5] = submitochondrial particles, 30° C.; read-out: Complex I inhibition Imax

Sequence of bovine heart mitochondrial complex I (P25708 21-464): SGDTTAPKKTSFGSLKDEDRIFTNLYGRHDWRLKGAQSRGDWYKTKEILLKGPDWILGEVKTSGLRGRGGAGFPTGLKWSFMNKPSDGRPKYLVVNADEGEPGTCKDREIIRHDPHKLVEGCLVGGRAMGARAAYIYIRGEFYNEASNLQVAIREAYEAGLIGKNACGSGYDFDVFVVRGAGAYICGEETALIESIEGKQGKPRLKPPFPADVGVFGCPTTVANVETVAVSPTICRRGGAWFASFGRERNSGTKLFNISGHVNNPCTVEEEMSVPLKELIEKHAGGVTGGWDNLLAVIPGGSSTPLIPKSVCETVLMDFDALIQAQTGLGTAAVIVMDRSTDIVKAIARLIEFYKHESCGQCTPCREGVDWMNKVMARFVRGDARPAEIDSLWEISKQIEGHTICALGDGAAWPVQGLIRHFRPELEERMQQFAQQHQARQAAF
Sequence of bovine heart mitochondrial complex I (P42026 38-216): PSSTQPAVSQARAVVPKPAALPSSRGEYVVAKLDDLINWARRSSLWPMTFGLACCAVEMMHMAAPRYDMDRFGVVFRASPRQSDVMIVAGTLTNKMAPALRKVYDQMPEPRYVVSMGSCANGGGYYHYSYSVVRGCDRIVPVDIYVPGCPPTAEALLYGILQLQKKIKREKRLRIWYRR
Sequence of bovine heart mitochondrial complex I (P17694 34-463): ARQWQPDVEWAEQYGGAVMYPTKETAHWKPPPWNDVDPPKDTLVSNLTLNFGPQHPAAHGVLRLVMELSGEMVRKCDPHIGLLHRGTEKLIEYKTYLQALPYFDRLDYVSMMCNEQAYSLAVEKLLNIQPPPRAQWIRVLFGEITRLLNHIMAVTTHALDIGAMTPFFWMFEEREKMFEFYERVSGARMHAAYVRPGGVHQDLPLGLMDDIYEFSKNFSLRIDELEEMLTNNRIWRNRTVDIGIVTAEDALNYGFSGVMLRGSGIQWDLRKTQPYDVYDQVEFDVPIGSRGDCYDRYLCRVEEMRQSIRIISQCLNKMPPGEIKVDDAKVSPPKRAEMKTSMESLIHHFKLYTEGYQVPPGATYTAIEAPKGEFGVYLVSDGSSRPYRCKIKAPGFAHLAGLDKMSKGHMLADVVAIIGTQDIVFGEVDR
Sequence of bovine heart mitochondrial complex I (P15690 24-727, further chain): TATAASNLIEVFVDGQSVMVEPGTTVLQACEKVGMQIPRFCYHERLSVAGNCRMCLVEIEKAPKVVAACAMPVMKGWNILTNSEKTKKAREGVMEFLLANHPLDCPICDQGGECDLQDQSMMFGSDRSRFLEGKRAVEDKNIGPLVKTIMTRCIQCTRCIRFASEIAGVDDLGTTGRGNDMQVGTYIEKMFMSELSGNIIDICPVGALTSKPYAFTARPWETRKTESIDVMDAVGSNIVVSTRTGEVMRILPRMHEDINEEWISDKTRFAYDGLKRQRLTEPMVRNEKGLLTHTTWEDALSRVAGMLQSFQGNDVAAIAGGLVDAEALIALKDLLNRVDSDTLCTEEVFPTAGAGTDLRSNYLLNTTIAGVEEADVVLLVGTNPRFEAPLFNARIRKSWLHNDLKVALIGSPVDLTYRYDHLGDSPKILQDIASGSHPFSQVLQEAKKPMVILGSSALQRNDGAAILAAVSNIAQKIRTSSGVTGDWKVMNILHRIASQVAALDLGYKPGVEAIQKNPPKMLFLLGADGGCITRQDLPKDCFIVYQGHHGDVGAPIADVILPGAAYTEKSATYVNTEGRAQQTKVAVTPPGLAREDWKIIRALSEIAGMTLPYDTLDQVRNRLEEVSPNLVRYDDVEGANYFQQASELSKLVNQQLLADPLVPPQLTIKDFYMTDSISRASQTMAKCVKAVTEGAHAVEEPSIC
Sequence of bovine heart mitochondrial complex I (P03887 whole entry): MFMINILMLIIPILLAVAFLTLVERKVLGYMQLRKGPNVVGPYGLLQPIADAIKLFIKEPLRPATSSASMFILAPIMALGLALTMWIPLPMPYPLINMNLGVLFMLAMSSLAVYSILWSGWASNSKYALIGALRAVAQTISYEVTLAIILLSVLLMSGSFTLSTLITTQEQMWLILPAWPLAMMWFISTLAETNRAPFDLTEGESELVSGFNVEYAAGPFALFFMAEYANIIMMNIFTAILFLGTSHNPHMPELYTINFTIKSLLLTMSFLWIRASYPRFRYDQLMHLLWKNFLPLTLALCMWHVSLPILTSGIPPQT
Sequence of bovine heart mitochondrial complex I (P42028 37-212, further chain): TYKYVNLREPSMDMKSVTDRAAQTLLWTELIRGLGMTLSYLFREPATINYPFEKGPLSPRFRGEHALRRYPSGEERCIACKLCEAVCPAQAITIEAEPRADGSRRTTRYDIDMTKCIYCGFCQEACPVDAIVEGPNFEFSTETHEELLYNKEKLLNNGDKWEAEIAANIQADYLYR

For `CCCCCCCCCCCCCC1=C(NCCCC(=O)OCCCC)C(=O)C(C)=C(NCCCC(=O)OCCCC)C1=O` [Compound 47, 2,5-bis(butyl 4-aminobutanoate)-3-methyl-6-tridecylcyclohexa-2,5-diene-1,4-dione], the “NADH oxidase activity (Complex I, III, IV) %” value ([1]; 1 μM) was 77 ± 1^ %, the “NADH oxidase activity (Complex I, III, IV) %” value ([1]; 5 μM) was 68 ± 1^ % and the “NADH oxidase activity (Complex I, III, IV) %” value ([1]; 10 μM) was 69 ± 2%. The “Cytoprotection (cell viability, % of untreated control)” value ([2]; 1 μM) was 9 ± 2%, the “Cytoprotection (cell viability, % of untreated control)” value ([2]; 5 μM) was 17 ± 3^ % and the “Scavenging activity (%), suppression of lipid peroxidation” value (FRDA lymphocytes; 5 μM) was 7 ± 1%. For the same molecule, the “Scavenging activity (%), suppression of lipid peroxidation” value (FRDA lymphocytes; 10 μM) was 19 ± 2^ % and the “Scavenging activity (%), suppression of ROS production” value (CEM leukemia cells) was 25 ± 11%.

In the case of `CCCCCCCCCCCCCC1=C(O)C(=O)C=C(NCCCC(=O)OC(C)(C)C)C1=O` [Compound 6, tert-butyl 4-(4-hydroxy-3,6-dioxo-5-tridecylcyclohexa-1,4-dienylamino)butanoate], the melting point is reported as 96 to 97 °C, the IC50 [3, 4] is reported as 10 ± 0.6 µM and the Emax [3, 5] is reported as 64 ± 13%. The viability at 5 µM ([2]; 5 μM) was 50%, the inhibition at 5 µM (FRDA lymphocytes; 5 μM) was 26 ± 6.7% and the inhibition at 10 µM (FRDA lymphocytes; 10 μM) was 37 ± 1.4%.

With `C=CCCCCCCCCCC1=C(OC)C(=O)C=C(NCCCCC=C)C1=O` [Compound 38, 5-(hex-5-enylamino)-2-methoxy-3-(undec-10-enyl)cyclohexa-2,5-diene-1,4-dione] the melting point was 45 to 46 °C.

For `C=CCCCCCCCCCC1=C(OC)C(=O)C=C(OC)C1=O`, the melting point was 30 to 31 °C.

In the case of `CCCCCCCCCCCCCC1=C(OC)C(=O)C=C(NCCCCCC)C1=O` [Compound 20, 5-(hexylamino)-2-methoxy-3-tridecylcyclohexa-2,5-diene-1,4-dione], the melting point is reported as 110 °C (dec.), the “NADH oxidase activity (Complex I, III, IV) %” value ([1]; 1 μM) is reported as 74 ± 16% and the “NADH oxidase activity (Complex I, III, IV) %” value ([1]; 5 μM) is reported as 47 ± 3.0%. The IC50 [3, 4] was 482 ± 24 µM, the Emax [3, 5] was > 85% and the viability at 0.1 µM [2] was 20 ± 3.2%. It also gave a viability at 0.5 µM [2] of 50 ± 5.2%, a viability at 2.5 µM [2] of 66 ± 6.3% and a viability at 5 µM ([2]; 5 μM) of 80 ± 4%. The inhibition at 1 µM (FRDA lymphocytes) was 14 ± 1.3%, the inhibition at 5 µM (FRDA lymphocytes; 5 μM) was 61 ± 7.5% and the inhibition at 10 µM (FRDA lymphocytes; 10 μM) was 70%.

For `CCCCCCCCCCCCCC1=C(NCCCC(=O)OC(C)(C)C)C(=O)C(C)=C(NCCCC(=O)OC(C)(C)C)C1=O` [Compound 44, 2,5-bis(tert-butyl 4-aminobutanoate)-3-methyl-6-tridecylcyclohexa-2,5-diene-1,4-dione], the “NADH oxidase activity (Complex I, III, IV) %” value ([1]; 1 μM) was 95 ± 2^ %, the “NADH oxidase activity (Complex I, III, IV) %” value ([1]; 5 μM) was 92 ± 3^ % and the “NADH oxidase activity (Complex I, III, IV) %” value ([1]; 10 μM) was 84 ± 3%. For the same molecule, the “Cytoprotection (cell viability, % of untreated control)” value ([2]; 1 μM) was 15 ± 2%, the “Cytoprotection (cell viability, % of untreated control)” value ([2]; 5 μM) was 98 ± 6^ % and the “Scavenging activity (%), suppression of lipid peroxidation” value (FRDA lymphocytes; 5 μM) was 8 ± 3%. For the same molecule, the “Scavenging activity (%), suppression of lipid peroxidation” value (FRDA lymphocytes; 10 μM) was 13 ± 3^ % and the “Scavenging activity (%), suppression of ROS production” value (CEM leukemia cells) was 0%.

For `CCCCCCCCCCCCCC1=C(O)C(=O)C=C(NCCCCCC)C1=O` [Compound 19, 5-(hexylamino)-2-hydroxy-3-tridecylcyclohexa-2,5-diene-1,4-dione], the melting point was 70 °C (dec.), the “NADH oxidase activity (Complex I, III, IV) %” value ([1]; 1 μM) was 67 ± 6.0% and the “NADH oxidase activity (Complex I, III, IV) %” value ([1]; 5 μM) was 39 ± 1.0%. The IC50 ([3]; read-out: Complex I inhibition IC50; submitochondrial particles, 30° C.) was 20 ± 1.7 µM, the Emax ([3]; read-out: Complex I inhibition Imax) was 77 ± 6.2% and the viability at 0.1 µM [2] was 18 ± 2.1%. It also gave a viability at 0.5 µM [2] of 22 ± 2.6%, a viability at 2.5 µM [2] of 43 ± 4.4% and a viability at 5 µM ([2]; 5 μM) of 65 ± 5.2%. It also gave an inhibition at 1 µM (FRDA lymphocytes) of 2 ± 0.3%, an inhibition at 5 µM (FRDA lymphocytes; 5 μM) of 27 ± 4.5% and an inhibition at 10 µM (FRDA lymphocytes; 10 μM) of 38%.
